Experimental data published in patent publication US20140030289A1, “COMPOSITIONS COMPRISING BETA-CARYOPHYLLENE AND METHODS OF UTILIZING THE SAME” (priority 2011, published 2014).

Experiments:
[1] = tested on: BS-24-1: mouse lymphoma cell; assay: Cell death / anti-proliferative assay (MTT/XTT) in BS-24-1 cells; format: cell-based; conditions: BS-24-1, 4.8e^−4 μM, 2 h
Protocol: (§1) The following cell lines were used in this study: (1) BS-24-1: mouse lymphoma cell; (2) MoFir: Epstein-Barr virus transformed human B lymphocytes generated in the laboratory by transformation of human B cell from an anonymous donor (see below); (3) FB: normal human skin fibroblasts.
(§2) Cell death was assessed by incubation of cells with tetrazolium salt XTT. The production of formazan can be monitored using an ELISA reader at a wavelength of 450 nm. Cytotoxicity in compound-treated culture was expressed as follows: % survival=100×(absorbance of compound-treated cell/absorbance of ethanol-treated cells).
(§3) In order to investigate whether C. gikadensis extracts had anti-proliferative effects against tumor cell lines, an MTT (3-(4,5-Dimethylthiazol-2-yl)-2,5-diphenyltetrazolium bromide) assay was used. The effect of this extract was assessed in mouse (BS-24-1) and human (MoFir) cell lines using ethanol (EtOH)-based stem extracts. The concentration of cells was 1.0×10^6/mL.

Epstein-Barr virus = assay: In vivo EBV animal model (humanized mouse or rabbit); conditions: 5.0, 10 or 20 mg/kg, 4 consecutive days, i.p. or within food or drinking water
Protocol: Studies evaluating the effect of C. gileadensis extract and β-caryophyllene in an in vivo animal model are performed using the humanized mouse animal model described in Sato et al., 2011 (“A novel animal model of Epstein-Barr virus-associated hemophagocytic lymphohistiocytosis in humanized mice” Blood, 2011 May 26; 117(21):5663-73, incorporated herein by reference in its entirety) or using the rabbit model described in Takashima, 2008 (“A new animal model for primary and persistent Epstein-Barr virus infection: human EBV-infected rabbit characteristics determined using sequential imaging and pathological analysis” J Med. Virol. 2008 March; 80(3):455-66, incorporated herein by reference in its entirety). C. gileadensis extract and β-caryophyllene are supplied in balanced salt solution containing 12% Tween 80 (pH 7.4) and diluted immediately before use in appropriate concentrations. Doses of 5.0, 10 or 20 mg/kg are administered for 4 consecutive days to control and EBV groups (eight animals/group) by i.p. injection of 0.1 ml per mouse or within the food or drinking water. Both C. gileadensis extract and β-caryophyllene are found to prevent EBV-induced death, viremia, leukocytosis, IFN-γ cytokinenemia, normocytic anemia, and thrombocytopenia, and increase survival time

[2] = tested on: EBV-producing B95-8 cells; assay: Survival of EBV-producing B95-8 cells; format: cell-based; conditions: increasing concentration
Source text: Epstein-Barr virus strain B95-8 can immortalize human B lymphocytes. B95-8 is a cell line that produces Epstein-Barr virus (EBV).

[3] = target: cannabinoid receptor type-1 (CB 1) (Homo sapiens, UniProt P21554); conditions: background statement; cited from earlier work
Topoisomerase I = target: T1, Topoisomerase I (Homo sapiens, UniProt P11387); assay: Topoisomerase I activity; format: biochemical
T1 sequence (P11387 1-765): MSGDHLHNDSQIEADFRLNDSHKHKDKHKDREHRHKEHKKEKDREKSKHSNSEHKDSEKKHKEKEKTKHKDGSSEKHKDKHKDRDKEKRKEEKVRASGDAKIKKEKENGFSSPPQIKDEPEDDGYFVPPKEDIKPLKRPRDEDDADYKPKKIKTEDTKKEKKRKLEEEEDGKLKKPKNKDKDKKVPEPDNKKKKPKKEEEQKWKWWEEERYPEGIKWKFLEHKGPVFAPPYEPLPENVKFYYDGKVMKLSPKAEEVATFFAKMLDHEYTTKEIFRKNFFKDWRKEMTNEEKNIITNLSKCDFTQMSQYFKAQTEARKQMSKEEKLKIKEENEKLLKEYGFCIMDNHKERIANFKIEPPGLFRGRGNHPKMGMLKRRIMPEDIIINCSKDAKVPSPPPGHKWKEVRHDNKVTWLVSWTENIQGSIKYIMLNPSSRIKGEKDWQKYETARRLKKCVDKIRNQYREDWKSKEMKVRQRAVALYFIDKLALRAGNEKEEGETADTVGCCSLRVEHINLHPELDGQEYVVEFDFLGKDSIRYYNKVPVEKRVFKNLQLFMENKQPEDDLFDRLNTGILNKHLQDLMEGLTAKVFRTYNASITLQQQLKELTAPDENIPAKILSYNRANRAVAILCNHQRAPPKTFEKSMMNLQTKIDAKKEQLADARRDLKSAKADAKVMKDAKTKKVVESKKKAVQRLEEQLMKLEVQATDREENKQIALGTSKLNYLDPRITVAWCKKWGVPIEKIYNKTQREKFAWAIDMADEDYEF
Source text: Topoisomerase I introduces a nick in the DNA backbone allowing the rotation of one DNA strand around the second DNA strand. The DNA break is extremely transient and is re-ligated almost immediately. When an inhibitor of Topoisomerase I is present, it binds to the Topoisomerase I-nicked DNA complex or to the Topoisomerase I itself and this prevents the re-ligation of the nicked strand or the initial nick and rotation, respectively. Topoisomerase I and II activities are required for Epstein-Barr Virus replication.

[4] = tested on: FB: normal human skin fibroblasts; assay: DNA ladder analysis (apoptosis), normal FB cells; format: cell-based; conditions: summary statements
Protocol: FIG. 7. is a gel micrograph showing the DNA ladder effect (induction of apoptosis) of different compositions. MoFir and normal FB cells were incubated with C. gileadensis extract (2.5 μl/mL) for 24 h. DNA was separated and analyzed on agarose gel. Lane 1 and 2, ethanol based stem extract Lane 3-5, ethanol based leaf extract. Lane 6 control cells treated with ethanol (0.05%).
DNA ladder analysis was performed as previously described Ofir R. et al., (1999) (Ofir R, Zhang L-, Adams J M. Interference with gene expression induces rapid apoptosisin p53-null T lymphoma cells. Cell Death and Differentiation 1999; 6: 1216-1221).

[5] = target: cannabinoid receptor type-2 (Homo sapiens, UniProt P34972); conditions: background statement; cited from earlier work
caspase-3 [6] = assay: Caspase-3 cellular activity assay, BS-24-1 cells; format: cell-based, mouse
[7] = tested on: MoFir: Epstein-Barr virus transformed human B lymphocytes; assay: Cell death / anti-proliferative assay (MTT/XTT) in MoFir cells; format: cell-based; conditions: 4.8e^−4 μM, 2 h
Protocol: as §1
To establish the MoFir cells, B cells from whole blood were prepared by Ficoll -Hypaque density gradient centrifugation. The cells were infected with the B95-8 strain of Epstein-Barr virus. RPMI medium (Biological Industries Beit Haemek) was used for cell culture. The EBV B lymphocyte cell line was maintained in RPMI supplemented with 10% FBS, 100 U/mL penicillin and […] streptomycin. The culture was maintained at 37° C. in 5% CO2 atmosphere. […]
as §2
as §3, with “The concentration of cells was 1.0×10^6/mL.” left out

caspase-3 [8] = assay: Caspase-3 cellular activity assay, MoFir cells; format: cell-based, human
Protocol: FIG. 4. is a bar graph showing the apoptogenic effects of β-Caryophyllene on two tumor cell lines. Enzymatic activity of different cell lines incubated with β-Caryophyllene (2.4e^−4 μM) for 2 h. X axis represents the time of the enzymatic reaction in vitro in minutes.
FIG. 5. is a bar graph showing the apoptogenic effects of β-Caryophyllene on two tumor cell lines. […] Measurements were taken following 1020 min of enzymatic reaction in vitro. Pre-incubation with caspase-3 inhibitor (DEVD-CHO) eliminated any development of caspase-3 activity.
Caspase-3 cellular activity assay was carried out according to the manufacturer's instructions. For measuring specific inhibition by Ac-DEVD-CHO, cell extracts were pre-incubated with the inhibitor (0.05 μM) for 10 minutes before the addition of the substrate. […] Cellular extracts were prepared and then caspase-3 activity was measured.

BS-24-1 cells = assay: DNA ladder analysis (apoptosis), BS-24-1 cells; format: cell-based, mouse; conditions: BS-24-1, 2-h treatment
Protocol: FIG. 6. is a gel micrograph showing the DNA ladder effect (induction of apoptosis) of different compositions. BS-24-1 cells (1,000,000/mL) were incubated with C. gileadensis stem and leaf extracts (6 μl/mL) for 17 h. DNA was separated and analyzed on agarose gel. Lanes 1-7 and 11, H2O based stem extract. Lanes 8-10, H2O based leaf extract. Lanes 12-18 and 22, ethanol based stem extract. Lanes 19-21, ethanol based leaf extract. Lanes 23 and 24 Control cells treated with ethanol (0.05%) and water.
FIG. 8. is a gel micrograph showing the DNA ladder effect (induction of apoptosis) of different compositions. BS-24-1 cells were incubated with C. gileadensis essential oil for 24 h. DNA was separated and analyzed on agarose gel. Lane 1, untreated cells with ethanol (0.05%) alone. Lane 2, cells incubation with 0.625 μl/mL essential oil. Lane 3, cells incubation with 1.25 μl/mL essential oil.
FIG. 9. is a gel micrograph showing the DNA ladder effect (induction of apoptosis) of β-Caryophyllene. Fragmentation of DNA in the presence of β-Caryophyllene. BS-24-1 cells were incubated in the presence of β-Caryophyllene in three different concentrations and two incubation time Lane 1, untreated cells with ethanol (0.05%) alone. Lane 2, cells incubated for 24 h with […] Lane 3, cells incubated for 2 h with 9.6 μM β-caryophyllene. […]

Chain of cannabinoid receptor type-2 (P34972 whole entry): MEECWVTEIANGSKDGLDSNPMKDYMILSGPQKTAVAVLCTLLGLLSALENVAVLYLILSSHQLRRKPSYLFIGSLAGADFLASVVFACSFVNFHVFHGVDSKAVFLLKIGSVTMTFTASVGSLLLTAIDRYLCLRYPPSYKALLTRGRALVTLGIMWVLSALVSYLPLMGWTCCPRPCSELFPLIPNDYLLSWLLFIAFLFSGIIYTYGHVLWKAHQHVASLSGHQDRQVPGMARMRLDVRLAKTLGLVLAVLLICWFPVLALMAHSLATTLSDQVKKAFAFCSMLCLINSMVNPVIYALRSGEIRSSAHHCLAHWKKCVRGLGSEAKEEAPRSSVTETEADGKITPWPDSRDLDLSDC
Chain of cannabinoid receptor type-1 (CB 1) (P21554 whole entry, species assumed): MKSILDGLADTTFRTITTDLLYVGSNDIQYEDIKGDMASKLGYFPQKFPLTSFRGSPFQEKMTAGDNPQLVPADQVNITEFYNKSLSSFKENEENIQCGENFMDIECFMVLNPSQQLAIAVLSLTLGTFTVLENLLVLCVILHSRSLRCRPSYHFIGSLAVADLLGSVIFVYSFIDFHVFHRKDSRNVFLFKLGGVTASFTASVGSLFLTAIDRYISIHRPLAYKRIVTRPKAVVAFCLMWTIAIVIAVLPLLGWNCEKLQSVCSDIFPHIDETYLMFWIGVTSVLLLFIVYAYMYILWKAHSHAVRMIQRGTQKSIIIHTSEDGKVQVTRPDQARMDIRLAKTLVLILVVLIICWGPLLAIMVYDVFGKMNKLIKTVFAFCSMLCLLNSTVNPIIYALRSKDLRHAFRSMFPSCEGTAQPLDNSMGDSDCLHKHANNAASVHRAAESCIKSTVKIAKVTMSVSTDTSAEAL

C=C1CC/C=C(\C)CC[C@@H]2[C@@H]1CC2(C)C [Beta-caryophyllene, trans-(1R,9S)-8-Methylene-4,11,11-trimethylbicyclo[7.2.0]undec-4-ene]
cell killing [1]: 85-90%
EBV-induced death, viremia, leukocytosis, IFN-γ cytokinenemia, normocytic anemia, and thrombocytopenia (Epstein-Barr virus): prevent
survival time (Epstein-Barr virus): increase
survival of EBV-producing B95-8 cells [2]: decreases the survival
binding to cannabinoid receptor type-1 (CB 1) [3]: does not bind
activity of Topoisomerase I (Topoisomerase I): inhibits
apoptosis induction in normal cells (FB) [4]: not in normal cells
binding to cannabinoid receptor type-2 [5]: selectively bind
enzymatic activity of caspase-3 (caspase-3 [6]; BS-24-1, 2.4e^−4 μM, 4 h incubation): activation of the enzymatic activity of caspase-3
induction of caspase-3 enzymatic activity compared to reference compounds STS and citral (caspase-3 [6]; data not shown, cell line not stated): stronger than both
cell killing [7]: 85-90%
enzymatic activity of caspase-3 (caspase-3 [8]; 2.4e^−4 μM): activation of the enzymatic activity of caspase-3
DNA ladder (DNA fragmentation) (BS-24-1 cells): repeated

Ac-DEVD-CHO [reference compound]
beta-caryophyllene induced increase of caspase-3 activity after inhibitor pretreatment (caspase-3 [6]; BS-24-1, pretreatment with inhibitor (0.05 μM, 10 minutes)): blocked
beta-caryophyllene induced increase of caspase-3 activity after inhibitor pretreatment (caspase-3 [8]; pretreatment with inhibitor (0.05 μM, 10 minutes)): blocked
